# Experiments:
# Type in all cases: physicochemical
# [1] = Solubility in PEG400 (naked-eye inspection); conditions: for solubility: polyethylene glycol 400 (PEG400), organic solvent or mixture, thermodynamic from solid, read-out: Solubility in PEG400, Evaluation results
# Description: 0.5 g each of the high-molecular compounds and plasticizers were placed into separate test tubes. 5 mL of PEG400 was added to each test tube. After stirring with a mixer, the resulting mixtures were inspected with the naked eye and the high-molecular compounds and plasticizers were evaluated for their solubility in PEG400.
# [2] = Solubility in 10 wt. % aqueous PVA solution; conditions: aqueous with cosolvent or surfactant or cyclodextrin, thermodynamic from solid; 0.5 g in 10 wt. % aqueous PVA (JP-05) solution; read-out: Solubility in the Aqueous PVA Solution, Evaluation result
# Description: (§1) Based on the results of Experimental Example 1, the candidates as raw materials for the band seal (see Table 2) were tested to research substances soluble in an aqueous solution of a PVA copolymer (POVACOAT Type F, product of Daido Kasei Corp., viscosity: 5.5 mPa·s, as measured at 25° C. using a 5% aqueous solution of the copolymer), and an aqueous solution of PVA (JP-05, product of Japan Vam & Poval Co., Ltd., average degree of polymerization: 500).
# (§2) More specifically, 0.5 g each of the film-forming high-molecular compounds and plasticizers were placed into separate test tubes. A 10 wt. % aqueous solution of the PVA copolymer or a 10 wt. % aqueous solution of the PVA was added to each test tube. […] If some solids or liquid separation was observed, the mixture was evaluated as “not dissolved (insoluble)”.
# [3] = Solubility in 10 wt. % aqueous PVA copolymer solution; conditions: aqueous with cosolvent or surfactant or cyclodextrin, thermodynamic from solid; 0.5 g in 10 wt. % aqueous PVA copolymer (POVACOAT Type F) solution; read-out: Solubility in the Aqueous PVA Copolymer Solution, Evaluation result
# Description: as §1, §2
# [4] = 0.5 g in 5 mL of PEG400, stirred, naked eye
"solubility [1, 4] [mg/mL]",Compound,further results
> 100,OCC(O)CO [Glycerol],–
> 100,CC(O)CO (centres unmarked) [Propylene glycol],–
< 100,OC[C@@H](O)[C@@H](O)[C@H](O)[C@@H](O)CO [Sorbitol],Solubility in PEG (in words) ([1]; 0.5 g in 5 mL of PEG400): insoluble; solubility [2]: > 100 mg/mL; solubility [3]: > 100 mg/mL
> 100,CC(=O)OCC(COC(C)=O)OC(C)=O [Triacetin],–
–,Polysorbate 80,"Solubility in PEG400, Evaluation results [1, 4]: x (x: dissolved)"

# From patent US9314966B2, “Bandseal for PEG-filled hard capsule” (QUALICAPS CO., LTD., priority 2007, dated 2016)
